Data: PMC3712578, “Luteolin is a novel p90 ribosomal S6 kinase (RSK) inhibitor that suppresses Notch4 signaling by blocking the activation of Y-box binding protein-1 (YB-1)” (Oncotarget, 2013)

Experiments:
RSK2 [1] = target: T1, RSK2 (Homo sapiens, UniProt P51812); test: biochemical; design: In vitro RSK2 kinase assay with S6K peptide substrate, dose-response 0.001-100 uM (SignalChem)
T1 construct: gene RPS6KA3
Description: Following the RSK1 screen, a broad dose-response study (0.001-100 μM) was conducted against RSK2 using the YB-1 peptide as a substrate in cell-free assays (Table 2). […] Kinase profiling services for RSK2 were provided by SignalChem, as previously described. […] To confirm inhibition of RSK2 activity, we also repeated the kinase assay with a secondary RSK substrate, S6K.

RSK2 [2] = target: T1, RSK2; test: in vitro RSK2 kinase assay, YB-1 peptide substrate; assay type: biochemical
RSK1 [3] = target: T2, RSK1 (Homo sapiens, UniProt Q15418); test: biochemical; design: In vitro RSK1 kinase assay with S6K peptide substrate, dose-response 0.001-100 uM
T2 construct: gene RPS6KA1

RSK1 [4] = target: T2, RSK1; test: in vitro RSK1 kinase assay, YB-1 peptide ([…] screen) and S6K peptide dose response; assay type: biochemical
[5] = read-out: Inhibition of RSK2 (%) against the YB-1 peptide as the substrate / IC50

T1 sequence (P51812 whole entry): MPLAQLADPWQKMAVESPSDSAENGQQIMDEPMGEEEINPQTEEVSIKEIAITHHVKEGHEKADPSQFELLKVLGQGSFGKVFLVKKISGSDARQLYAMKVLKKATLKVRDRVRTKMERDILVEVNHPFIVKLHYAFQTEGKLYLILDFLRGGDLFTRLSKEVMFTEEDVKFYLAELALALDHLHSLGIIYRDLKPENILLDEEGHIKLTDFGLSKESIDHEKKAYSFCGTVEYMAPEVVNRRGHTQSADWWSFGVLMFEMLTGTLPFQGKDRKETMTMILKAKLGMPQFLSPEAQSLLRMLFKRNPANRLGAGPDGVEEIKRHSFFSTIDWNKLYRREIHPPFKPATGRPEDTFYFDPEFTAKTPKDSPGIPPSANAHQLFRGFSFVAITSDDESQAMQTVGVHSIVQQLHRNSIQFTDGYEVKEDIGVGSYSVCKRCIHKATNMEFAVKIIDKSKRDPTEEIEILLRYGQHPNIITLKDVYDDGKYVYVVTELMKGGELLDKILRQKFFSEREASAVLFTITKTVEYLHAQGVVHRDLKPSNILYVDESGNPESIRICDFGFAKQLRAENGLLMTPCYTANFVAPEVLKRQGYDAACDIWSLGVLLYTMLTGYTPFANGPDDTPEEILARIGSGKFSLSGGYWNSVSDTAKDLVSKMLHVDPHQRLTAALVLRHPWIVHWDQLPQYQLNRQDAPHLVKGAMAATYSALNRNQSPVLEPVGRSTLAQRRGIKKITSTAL
T2 sequence (Q15418 whole entry): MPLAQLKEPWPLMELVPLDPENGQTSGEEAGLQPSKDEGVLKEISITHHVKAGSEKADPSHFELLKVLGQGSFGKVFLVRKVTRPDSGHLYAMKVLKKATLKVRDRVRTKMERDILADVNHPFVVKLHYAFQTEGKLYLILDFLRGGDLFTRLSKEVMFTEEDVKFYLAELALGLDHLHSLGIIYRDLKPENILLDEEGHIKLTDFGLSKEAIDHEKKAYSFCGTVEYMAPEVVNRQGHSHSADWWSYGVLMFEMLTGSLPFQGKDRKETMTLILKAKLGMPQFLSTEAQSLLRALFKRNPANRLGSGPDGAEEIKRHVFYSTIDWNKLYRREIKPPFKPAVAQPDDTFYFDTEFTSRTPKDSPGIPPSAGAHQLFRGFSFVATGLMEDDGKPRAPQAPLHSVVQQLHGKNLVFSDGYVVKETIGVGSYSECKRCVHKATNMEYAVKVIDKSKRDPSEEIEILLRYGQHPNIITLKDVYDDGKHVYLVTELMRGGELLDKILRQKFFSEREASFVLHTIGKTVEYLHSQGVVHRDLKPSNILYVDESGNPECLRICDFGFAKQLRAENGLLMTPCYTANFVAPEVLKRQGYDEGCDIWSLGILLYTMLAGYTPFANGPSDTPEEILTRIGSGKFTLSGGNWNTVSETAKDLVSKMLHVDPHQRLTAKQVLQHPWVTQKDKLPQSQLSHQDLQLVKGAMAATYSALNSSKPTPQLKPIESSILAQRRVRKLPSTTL

**Q.** For `O=c1cc(-c2ccc(O)cc2)oc2cc(O)cc(O)c12` [Apigenin], which IC50 (RSK2 [1]) is on record?
**A.** 3480 nM

**Q.** What about the IC50 (RSK2 [2]) of the same compound?
**A.** 4770 nM

**Q.** What about the IC50 (RSK1 [3]) of the same compound?
**A.** 3780 nM

**Q.** How did the IC50 (RSK2 [1]) turn out when `O=c1c(O)c(-c2ccc(O)cc2)oc2cc(O)cc(O)c12` [Kaempferol] was run?
**A.** 760 nM

**Q.** And the “in vitro RSK1 kinase assay, YB-1 peptide (10 μM screen) and S6K peptide dose res” value (RSK1 [4])?
**A.** all three compounds inhibited the kinase activity of both isoforms in the low micromolar range

**Q.** What about the IC50 (RSK2 [2]; [5]) of the same compound?
**A.** 1710 nM

**Q.** And the IC50 (RSK1 [3])?
**A.** 1480 nM

**Q.** Which results are given for `O=c1cc(-c2ccc(O)c(O)c2)oc2cc(O)cc(O)c12` [Luteolin]?
**A.** in vitro RSK1 kinase assay, YB-1 peptide (10 μM screen) and S6K peptide dose res (RSK1 [4]): all three compounds inhibited the kinase activity of both isoforms in the low micromolar range; IC50 (RSK2 [2]; [5]): 4420 nM; IC50 (RSK1 [3]): 2250 nM
